Legend:
[1] = target: T1, β2AR (Homo sapiens, UniProt P07550); assay: 125I-CYP competition radioligand binding at β2AR in HDL particles (nanodiscs)
[2] = target: T1, β2AR; assay: 35S-GTPγS binding to heterotrimeric Gs (SPA), β2AR in HDL; conditions: epinephrine (10 µM) stimulation; cmpd-6 or A9 20 µM, Nb6B9 1 µM, ICI-118551 10 µM
Procedure: After incubations, the β2AR-Gs complexes were captured on YSi beads.

T1 sequence (P07550 whole entry): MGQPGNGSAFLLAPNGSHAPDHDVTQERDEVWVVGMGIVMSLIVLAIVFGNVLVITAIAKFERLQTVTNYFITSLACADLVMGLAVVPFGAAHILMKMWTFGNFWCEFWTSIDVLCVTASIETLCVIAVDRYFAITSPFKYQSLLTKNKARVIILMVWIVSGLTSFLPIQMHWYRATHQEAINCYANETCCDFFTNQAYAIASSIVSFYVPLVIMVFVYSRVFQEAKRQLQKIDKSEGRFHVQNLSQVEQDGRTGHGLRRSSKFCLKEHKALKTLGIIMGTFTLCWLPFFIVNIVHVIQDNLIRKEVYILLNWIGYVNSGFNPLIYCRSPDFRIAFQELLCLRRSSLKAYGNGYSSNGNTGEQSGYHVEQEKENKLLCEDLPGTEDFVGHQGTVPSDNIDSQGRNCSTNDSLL

## CC(C)N(C)S(=O)(=O)c1ccc(Sc2ccc(C(N)=O)cc2)c(C(=O)N[C@@H](CC(N)=O)Cc2ccc(C(C)(C)C)cc2)c1 [A9]
[1]; LogKT, dissociation constant of PAM, carvedilol-bound β2AR
  Kd: 2.95 µM
[1]; analog 20 µM, Fig. 5A(i), 5C
  PAM activity with agonists including epinephrine (affinity shift): absolutely no PAM activity
[1]; analog 20 µM, Fig. 5A(ii)
  cooperativity with carvedilol (affinity shift): retains its positive cooperativity with carvedilol
[1]; binding affinity of modulator for the receptor in the presence of carvedilol, from shifts of carvedilol LogIC50 versus modulator dose
  Kd: ~2.9 µM
[2]
  35S-GTPγS binding to Gs / activation of Gs: markedly blocks the agonist-stimulated activation of Gs
